Measurements published in patent US4529587A, “Method of reducing sebum on the hair and skin” (Lever Brothers Company, priority 1982, dated 1985).
“And” between values parts separate entries of the source, which are not always exact repeats. Equal entries are not always repeated.

Key:
[1] = test system: FFA and "Triglyceride" lipid synthesis; assay: in vivo topical treatment of rats, ^14 C-acetate incorporation into FFA and "triglyceride" lipid (thin layer chromatography fractions); parameters: species or system rat
Experimental: (§1) Ten, 3 week male weanling rats, clipped on left and right flanks, were divided into two groups of five animals. One group was untreated on the left flank while the right flank received the test solution (1 mg/ml biotin sulphone in 70% ethanol:30% water) twice a day (once per day at weekends) for six weeks. The second group received the ethanol/water carrier on the left flank and the test solution on the right. At the end of the treatment the rats were killed, skin removed and divided approximately into epidermis and dermis using a 0.2 mm keratatome cut. Samples of dermis containing most of the sebaceous tissue from either untreated (UN), vehicle (V) or test (T) treated skin were incubated in a nutrient medium (basal eagles medium +10% foetal calf seru, 20 mM hepes pH 7.4, antibiotics, 100 μM sodium acetate containing 1 μCi/ml sodium (1-^14 C) acetate for 19 hours at 37° C. The ^14 C-acetate is metabolically incorporated into lipids and gives a "snap shot" of the lipid synthesis profile over the 19 hour time period. At the end of the incubation samples were washed in ice cold medium without ^14 C-acetate, quenched in ice cold 5% trichloroacetic acid (TCA), homogenised and centrifuged to separate insoluble residue from TCA soluble material ("TCA" fraction). The TCA fraction contains nucleo dtides, small metabolites especially succinate, amino acids, small peptides and free ^14 C-acetate. Lipids were extracted in chloroform:methanol and subject to Folch washing essentially as described by Prottey el al., Brit. J. Dermatol. (1972) 87, 586-607 generating the following fractions : "lipids", "aqueous methanol" containing only a small proportion of skin lipids with a very low ^14 C count and an extracted "solid residue". The total ^14 C count in all these fractions was determined.
The radioactive lipids were fractionated into free fatty acids (FFA) monoglycerides (MG), diglycerides (trace only) and triglyerides (TG) using a standard, neutral solvent, thin layer chromatography system.
However ^14 C-acetate is also incorporated into the cholesterol synthetic pathway which should be largely unaffected by the biotin sulphone treatment. This will cause a "dilution" of the reduction seen above. Accordingly, the lipids whose synthesis is dependent on acetyl-SCoA-carboxylase have been isolated. These are free fatty acids (FFA), monoglyceride (MG), diglyeride (trace) triglyceride (TG). It is predicted that a greater reduction in the incorporation of ^14 C-acetate into "triglyceride" lipid should now be observed. As fatty acids are the primary product made by the acetyl-SCoA-carboxylase pathway in the sebaceous gland, results for this lipid class have been included separately, as well as for total "triglyceride" lipid; values of six of the rats are given in Table 3 below: […]

acetyl-SCoA-carboxylase = acetyl-SCoA-carboxylase activity in cultured human dermal fibroblasts (fixation of ^14 C-sodium bicarbonate into protein); assay type: cell-based
Experimental: In preliminary experiments the ability of biotin sulphone to reduce the activity of acetyl-SCoa-carboxylase in an in vitro assay was assessed using cultured human dermal fibroblasts as described in Ghneim et al (1981) Biochem. Soc. Trans. 9, 405-6 and references therein. Human dermal fibroblasts were maintained in culture for 3 days with 1 μM biotin sulphone in the presence of a nutrient medium containing 10% foetal calf serum. The level of naturally occurring biotin was about 10 nM. Enzyme activity was assayed in the cell pellet by the fixation of ^14 C-sodium bicarbonate into protein in the presence of acety-CoA under appropriate conditions. Control experiments were done in the absence of biotin sulphone and enzyme activities were calculated with respect to protein.

[2] = test system: ^14 C-acetate uptake into dermal lipids; assay: in vivo topical treatment of rats, ^14 C-acetate uptake into dermal lipids; parameters: species or system rat
Experimental: as §1
The following ratio provides a measure of lipid synthesis per unit volume of skin, that is the total ^14 C-acetate uptake into lipids (i.e. amount of lipid synthesis) divided by the ^14 C-acetate uptake into the remaining tissue fractions (i.e. a measure of sample size). (Remaining tissue="TCA" fraction+"solid residue").

[3] = biotin sulphone treatment, rats
[4] = individual rats, 1 = 41,151 DPM ^14 C-acetate incorporated into lipid, corrected for sample size, topical 1 mg/ml, six weeks

Compound: O=C(O)CCCC[C@H]1[C@H]2NC(=O)N[C@H]2CS1(=O)=O [biotin sulphone]
- FFA synthesis, Test, Av. ([1]; average of six rats, 1 = 41,151 DPM ^14 C-acetate, control Av. 1.50): 0.91
- "Triglyceride" lipid synthesis (sum of FFA + MG + TG), Test, Av. ([1]; average of six rats, 1 = 41,151 DPM ^14 C-acetate, control Av. 18.24): 12.94
- change of "Triglyceride" lipid synthesis vs control ([1]; average, Test vs V + UN): -29%
- change of FFA synthesis vs control ([1]; average, Test vs V + UN): -39%
- reduction of "Triglyceride" (FFA+MG+TG) synthesis [1, 3]: 29%
- reduction of denovo FFA synthesis [1, 3]: 39%
- "Triglyceride" lipid synthesis (sum of FFA + MG + TG), Test [1, 4]: 13.93 and 8.58 and 15.17 and 15.38 and 14.74 and 9.85
- FFA synthesis, Test [1, 4]: 0.78 and 0.41 and 0.60 and 1.67 and 1.22
- nCi ^14 C-bicarbonate fixed per mg protein (acetyl-SCoA-carboxylase; 1 μM biotin sulphone, 3 days, 10% foetal calf serum, control 4.46): 3.26 nCi per mg protein
- Acetyl-SCoA-carboxylase activity (%) (acetyl-SCoA-carboxylase; 1 μM biotin sulphone, 3 days, control = 100): 73%
- reduction in acetyl-SCoA-carboxylase activity (acetyl-SCoA-carboxylase; culture in the presence of 1 μM biotin sulphone, vs control, 4320 min): 27%
- Av. Test ratio: ^14 C-acetate uptake into lipids divided by uptake into remaining tissue ([2]; average of ten rats, control (UN or V) Av. 0.59): 0.49
- change of Av. Test ratio vs control ([2]; average, Test vs UN or V): -18%
- Test ratio: ^14 C-acetate uptake into lipids divided by uptake into remaining tissue (TCA fraction + solid residue) ([2]; individual rats A-J, 1 mg/ml in 70% ethanol:30% water, topical, twice a day, six weeks, dermis incubated 19 hours at 37° C.): 0.43 and 0.23 and 0.59 and 0.44 and 0.52 and 0.53 and 0.58 and 0.39 and 0.73
- overall reduction in ^14 C-acetate uptake into dermal lipids ([2]; topical application, ten rats): 18%
